Values quoted from earlier work, collected in patent publication US10968292B2, “Synthetic polymer film whose surface has microbicidal activity, photocurable resin composition, manufacturing method of synthetic polymer film, and sterilization method with use of surface of synthetic polymer film” (SHARP KABUSHIKI KAISHA, priority 2017, dated 2021).

Details: for Water Solubility (solubility index): organic acids, water at about 20° C. to about 25° C.; for Water Solubility: monomers, YES/NO

Compound	Water Solubility (solubility index)	Water Solubility
O=C(O)CCCCCCCCCCC(=O)O [Dodecanedioic Acid, dodecanedioic acid]	7 (Practically insoluble • Not less than 10000 mL)	–
O=P(O)(O)Oc1ccccc1 [PPA, phenylphosphate]	1 (Very soluble • Less than 1 mL)	–
O=C(O)CCCCCCC(=O)O [Suberic Acid, octanedioic acid]	5 (Slightly soluble • Equal to or greater than 100 mL and less than 1000 mL)	–
Cc1cc(C)c(C(=O)O)c(C)c1 [TMBA, 2,4,6-trimethylbenzoic acid]	6 (Very slightly soluble • Equal to or greater than 1000 mL and less than 10000 mL)	–
polyethylene glycol (200) diacrylate [Example M282]	–	YES
polyethylene glycol (400) diacrylate [Example M280]	–	YES
